Our source for the IC50 values is US11512053B2, “Arginine methyltransferase inhibitors and uses thereof” (priority 2013, dated 2022).

Assay [1] concerns the target full-length human PRMT1 isoform 1 (GST-tagged) (Homo sapiens, UniProt Q99873). The experiment in a line: PRMT1 Biochemical Assay (3H-SAM Flashplate, peptide substrate). The source says: General Materials. S-adenosylmethionine (SAM), S-adenosylhomocysteine (SAH), bicine, Tween20, dimethylsulfoxide (DMSO), bovine skin gelatin (BSG), and Tris(2-carboxyethyl)phosphine hydrochloride solution (TCEP) were purchased from Sigma-Aldrich at the highest level of purity possible. ^3H-SAM was purchase from American Radiolabeled Chemicals with a specific activity of 80 Ci/mmol. 384-well streptavidin Flashplates were purchased from PerkinElmer.
Protein Expression. Recombinant baculovirus were generated according to Bac-to-Bac kit instructions (Life Technologies). […] Infections were carried out at 27° C. for 48 hours, harvested by centrifugation, and stored at −80° C. for purification.
Protein Purification. […] GST-tagged PRMT1 was eluted with 50 mM Tris, 2 mM glutathione, pH 7.8, dialysed in buffer A and concentrated to 1 mg/mL.
General Procedure for PRMT1 Enzyme Assays on Peptide Substrates. The assays were all performed in a buffer consisting of 20 mM Bicine (pH=7.6), 1 mM TCEP, 0.005% BSG, and 0.002% Tween 20, prepared on the day of use. […] DMSO (1 ul) was added to Columns 11, 12, 23, 24, rows A-H for the maximum signal control and 1 ul of SAH, a known product and inhibitor of PRMT1, was added to columns 11, 12, 23, 24, rows I-P for the minimum signal control. A cocktail (40 ul) containing the PRMT1 enzyme was added by Multidrop Combi (Thermo-Fisher). The compounds were allowed to incubate with PRMT1 for 30 min at room temperature, then a cocktail (10 ul) containing SAM and peptide was added to initiate the reaction (final volume=51 ul). […] The assays were stopped by the addition of non-radiolabeled SAM (10 ul) to a final concentration of 300 uM, which dilutes the ^3H-SAM to a level where its incorporation into the peptide substrate is no longer detectable. 50 ul of the reaction in the 384-well polypropylene plate was then transferred to a 384-well Flashplate and the biotinylated peptides were allowed to bind to the streptavidin surface for at least 1 hour before being washed once with 0.1% Tween20 in a Biotek ELx405 plate washer. The plates were then read in a PerkinElmer TopCount plate reader to measure the quantity of ^3H-labeled peptide bound to the Flashplate surface, measured as disintegrations per minute (dpm) or alternatively, referred to as counts per minute (cpm).
Where dpm=disintegrations per minute, cmpd=signal in assay well, and min and max are the respective minimum and maximum signal controls.
Where top and bottom are the normally allowed to float, but may be fixed at 100 or 0 respectively in a 3-parameter fit. The Hill Coefficient normally allowed to float but may also be fixed at 1 in a 3-parameter fit. Y is the % inhibition and X is the compound concentration.

Assay [2] concerns the target full-length human PRMT8 isoform 1 (Homo sapiens, UniProt Q9NR22). The experiment in a line: PRMT8 Biochemical Assay (3H-SAM Flashplate, peptide substrate). The note with it: read-out: Biochemical IC50 PRMT8. The procedure, abridged: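 Scintillation Flashplate capture of biotinylated histone H4 (31-45) peptide (150 nM) methylated by 1.5 nM PRMT8 using 3H-SAM (50 nM) with unlabelled SAM (550 nM); enzyme and compound preincubated 30 min, room temperature, in Bicine pH 7.6 buffer with TCEP, BSG, Tween 20 and 2% DMSO. Stopped with excess cold SAM (400 uM); IC50 from % inhibition, min control 1 mM SAH.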

Setting [3] is: single experiment or average of multiple experiments.

Read-outs that look alike come from different tables or passages of the source.

Chain of full-length human PRMT8 isoform 1 (Q9NR22 whole entry, canonical isoform): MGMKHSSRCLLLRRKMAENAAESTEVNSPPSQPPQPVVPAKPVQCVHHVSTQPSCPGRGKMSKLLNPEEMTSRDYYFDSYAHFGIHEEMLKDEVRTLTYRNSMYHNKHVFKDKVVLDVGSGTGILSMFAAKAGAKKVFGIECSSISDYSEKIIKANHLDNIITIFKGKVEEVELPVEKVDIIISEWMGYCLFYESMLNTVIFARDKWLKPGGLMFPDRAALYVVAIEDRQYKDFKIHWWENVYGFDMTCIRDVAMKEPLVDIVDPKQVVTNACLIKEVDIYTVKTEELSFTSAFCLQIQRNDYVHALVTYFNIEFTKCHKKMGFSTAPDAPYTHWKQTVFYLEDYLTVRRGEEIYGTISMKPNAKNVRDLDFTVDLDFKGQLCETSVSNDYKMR
Chain of full-length human PRMT1 isoform 1 (GST-tagged) (Q99873 with tags, fused parts or gaps): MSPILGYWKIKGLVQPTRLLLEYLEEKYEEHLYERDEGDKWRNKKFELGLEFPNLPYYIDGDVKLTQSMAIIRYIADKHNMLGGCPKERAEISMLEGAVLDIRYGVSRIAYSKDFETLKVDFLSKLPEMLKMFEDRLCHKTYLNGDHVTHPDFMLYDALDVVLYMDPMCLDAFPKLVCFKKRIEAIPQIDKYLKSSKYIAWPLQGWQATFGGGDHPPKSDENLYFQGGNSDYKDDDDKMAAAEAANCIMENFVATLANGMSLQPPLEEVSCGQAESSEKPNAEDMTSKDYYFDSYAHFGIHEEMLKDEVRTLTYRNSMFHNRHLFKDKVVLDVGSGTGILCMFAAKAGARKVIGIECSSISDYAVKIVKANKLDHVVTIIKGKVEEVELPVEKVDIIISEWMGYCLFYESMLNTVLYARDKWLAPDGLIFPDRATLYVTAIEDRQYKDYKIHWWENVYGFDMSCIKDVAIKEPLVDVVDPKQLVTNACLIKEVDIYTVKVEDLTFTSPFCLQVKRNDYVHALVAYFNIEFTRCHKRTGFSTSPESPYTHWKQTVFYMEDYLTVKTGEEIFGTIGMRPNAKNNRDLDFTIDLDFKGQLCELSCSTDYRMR

On to `CCCOC1CC(OCCC)CC(c2n[nH]cc2CN(C)CCNC)C1` (stereo not drawn) [Compound 131], for which the IC50 (as a rule, the concentration that gives 50% inhibition) in assay [1] is 101 to 1000 nM; in assay [1] (setting [3]), 270 nM; in assay [2], 1010 to 3000 nM; in assay [2] (setting [3]) it was 1970 nM.

As for `CCOC1CC(OCC)CC(c2n[nH]cc2CN(C)CCNC)C1` (stereo not drawn) [Compound 132], the IC50 in assay [1] was 101 to 1000 nM; in assay [1] (setting [3]) it was 626 nM; in assay [2], 3010 to 10000 nM; in assay [2] (setting [3]), 4330 nM.

For `CNCCN(C)Cc1c[nH]nc1C1CCC(OCCOc2ccccc2)CC1` (stereo not drawn) [Compound 136], the IC50 in assay [1] is < 100 nM; in assay [1] (setting [3]), 2.9 nM; in assay [2], < 100 nM; in assay [2] (setting [3]), 6.8 nM.

Turning to `CNCCN(C)Cc1c[nH]nc1C1CCC2(CCCCO2)CC1` (stereo not drawn) [Compound 137], the IC50 is < 100 nM in assay [1], 7.3 nM in assay [1] (setting [3]), < 100 nM in assay [2] and 16.2 nM in assay [2] (setting [3]).

For the compound `CNCCN(C)Cc1c[nH]nc1C1CC(COC)CC(COC)C1` (stereo not drawn) [Compound 138], the IC50 in assay [1] is 101 to 1000 nM; in assay [1] (setting [3]) it was 349 nM; in assay [2], 1010 to 3000 nM; in assay [2] (setting [3]) it was 1430 nM.

For the compound `CNCCN(C)Cc1c[nH]nc1[C@H]1CC[C@H](OC2CCCCC2)CC1` [Compound 139], the IC50 was < 100 nM in assay [1], 30.5 nM in assay [1] (setting [3]), 101 to 1000 nM in assay [2] and 116 nM in assay [2] (setting [3]).

Take `CNCCN(C)Cc1c[nH]nc1[C@H]1CC[C@@H](OC2CCCCC2)CC1` [Compound 140]: the IC50 was < 100 nM in assay [1], 15.6 nM in assay [1] (setting [3]), < 100 nM in assay [2] and 33.9 nM in assay [2] (setting [3]).

On to `CNCCN(C)Cc1c[nH]nc1[C@H]1CC[C@@]2(CCOC2)CC1` [Compound 141], for which the IC50 was < 100 nM in assay [1], 10.7 nM in assay [1] (setting [3]), < 100 nM in assay [2] and 29.7 nM in assay [2] (setting [3]).

As to `CNCCN(C)Cc1c[nH]nc1[C@H]1CC[C@]2(CCOC2)CC1` [Compound 142], the IC50 in assay [1] is < 100 nM; in assay [1] (setting [3]), 7.2 nM; in assay [2], < 100 nM; in assay [2] (setting [3]), 15.9 nM.

As for `CNCCN(C)Cc1c[nH]nc1[C@H]1CC[C@@]2(CCCO2)CC1` [Compound 143], the IC50 in assay [1] was < 100 nM; in assay [1] (setting [3]) it was 10.6 nM; in assay [2], < 100 nM; in assay [2] (setting [3]), 33 nM.

On to `CNCCN(C)Cc1c[nH]nc1C1CCC2(CC1)CC2` [Compound 144], for which the IC50 is < 100 nM in assay [1], 21.6 nM in assay [1] (setting [3]), < 100 nM in assay [2] and 78.4 nM in assay [2] (setting [3]).

With `CNCCN(C)Cc1c[nH]nc1C1CCC2(CC1)C(=O)NC(=O)N2C` (stereo not drawn) [Compound 161], the IC50 in assay [1] was < 100 nM; in assay [1] (setting [3]), 25.6 nM; in assay [2], < 100 nM; in assay [2] (setting [3]), 37.4 nM.

Turning to `CCN1C(=O)N(C)CC12CCC(c1n[nH]cc1CN(C)CCNC)CC2` (stereo not drawn) [Compound 162], the IC50 in assay [1] is < 100 nM; in assay [1] (setting [3]), 38.9 nM; in assay [2], < 100 nM; in assay [2] (setting [3]) it was 92.7 nM.

With `CNCCN(C)Cc1c[nH]nc1C1CCC2(CC1)CCN(CCC(C)C)C2=O` (stereo not drawn) [Compound 163], the IC50 in assay [1] was < 100 nM; in assay [1] (setting [3]), 17.3 nM; in assay [2] it was < 100 nM; in assay [2] (setting [3]), 15.8 nM.

As to `CNCCN(C)Cc1c[nH]nc1C1CCC2(CC1)CCN(CC(C)C)C2=O` (stereo not drawn) [Compound 164], the IC50 was < 100 nM in assay [1], 19.7 nM in assay [1] (setting [3]), < 100 nM in assay [2] and 19.1 nM in assay [2] (setting [3]).

Consider `CNCCN(C)Cc1c[nH]nc1C1CCC2(CC1)CC(=O)N(CCC(C)C)C2` (stereo not drawn) [Compound 165], for which the IC50 in assay [1] was < 100 nM; in assay [1] (setting [3]), 17.6 nM; in assay [2], < 100 nM; in assay [2] (setting [3]) it was 18.1 nM.

On to `CNCCN(C)Cc1c[nH]nc1[C@H]1CC[C@@H](COC)CC1` [Compound 166], for which the IC50 in assay [1] is < 100 nM; in assay [1] (setting [3]) it was 18 nM; in assay [2], < 100 nM; in assay [2] (setting [3]) it was 23 nM.

As for `CNCCN(C)Cc1c[nH]nc1[C@H]1CC[C@H](COC)CC1` [Compound 167], the IC50 in assay [1] was < 100 nM; in assay [1] (setting [3]) it was 11 nM; in assay [2], < 100 nM; in assay [2] (setting [3]), 13 nM.

As to `CCOC1CC2(CCC(c3n[nH]cc3CN(C)CCNC)CC2)CC1OCC` (stereo not drawn) [Compound 168], the IC50 in assay [1] is < 100 nM; in assay [1] (setting [3]), 19.8 nM; in assay [2], < 100 nM; in assay [2] (setting [3]), 28.1 nM.

For the compound `CNCCN(C)Cc1c[nH]nc1C1CCC(CC(C)C)CC1` (stereo not drawn) [Compound 169], the IC50 in assay [1] is < 100 nM; in assay [1] (setting [3]), 6.5 nM; in assay [2], < 100 nM; in assay [2] (setting [3]) it was 10.2 nM.

Regarding `CNCCN(C)Cc1c[nH]nc1C1CCC2(CC1)NC(=O)N(C)C2=O` (stereo not drawn) [Compound 170], the IC50 in assay [1] is < 100 nM; in assay [1] (setting [3]), 21 nM; in assay [2], < 100 nM; in assay [2] (setting [3]), 23.7 nM.

For `CNCCN(C)Cc1c[nH]nc1C1CCC2(CC1)NC(=O)NC2=O` (stereo not drawn) [Compound 175], the IC50 in assay [1] is < 100 nM; in assay [1] (setting [3]) it was 13.3 nM; in assay [2], < 100 nM; in assay [2] (setting [3]), 29.6 nM.

`CNCCN(C)Cc1c[nH]nc1C1CCC2(CCNC2=O)CC1` (stereo not drawn) [Compound 176]: the IC50 is < 100 nM in assay [1], 10.2 nM in assay [1] (setting [3]), < 100 nM in assay [2] and 28.6 nM in assay [2] (setting [3]).

`CNCCN(C)Cc1c[nH]nc1C1CCC2(CC1)OCCO2` [Compound 177]: the IC50 in assay [1] was < 100 nM; in assay [1] (setting [3]), 27.6 nM; in assay [2] it was 101 to 1000 nM; in assay [2] (setting [3]), 150 nM.

Consider `CNCCN(C)Cc1c[nH]nc1C1CCC2(CCOCC2)CC1` [Compound 178], for which the IC50 is < 100 nM in assay [1], 5.8 nM in assay [1] (setting [3]), < 100 nM in assay [2] and 20.5 nM in assay [2] (setting [3]).

`CNCCN(C)Cc1c[nH]nc1C1CC(C)OC(C)C1` (stereo not drawn) [Compound 179]: the IC50 is < 100 nM in assay [1], 15.9 nM in assay [1] (setting [3]), < 100 nM in assay [2] and 57.3 nM in assay [2] (setting [3]).

`CNCCN(C)Cc1c[nH]nc1C1CCC(O)C2(CCCC2)C1` (stereo not drawn) [Compound 182, 9-[4-({methyl[2-(methylamino)ethyl]amino}methyl)-1H-pyrazol-3-yl]spiro[4.5]decan-6-ol]: the IC50 was < 100 nM in assay [1], 11.6 nM in assay [1] (setting [3]), < 100 nM in assay [2] and 32.3 nM in assay [2] (setting [3]).

Turning to `CNCCN(C)Cc1c[nH]nc1C1CCC(C)(C)C(O)C1` (stereo not drawn) [Compound 185, 2,2-dimethyl-5-[4-({methyl[2-(methylamino)ethyl]amino}methyl)-1H-pyrazol-3-yl]cyclohexan-1-ol], the IC50 was < 100 nM in assay [1], 14.2 nM in assay [1] (setting [3]), < 100 nM in assay [2] and 24.4 nM in assay [2] (setting [3]).

In the case of `CNCCN(C)Cc1c[nH]nc1[C@H]1CC[C@H](OCCOc2ccc(OC)cc2)CC1` [Compound 186], the IC50 was 101 to 1000 nM in assay [1], 110 nM in assay [1] (setting [3]), < 100 nM in assay [2] and 89.6 nM in assay [2] (setting [3]).

`CNCCN(C)Cc1c[nH]nc1[C@H]1CC[C@H](OCCOc2ccccc2)CC1` [Compound 187]: the IC50 in assay [1] was 101 to 1000 nM; in assay [1] (setting [3]), 193 nM; in assay [2], 101 to 1000 nM; in assay [2] (setting [3]) it was 185 nM.
